Reference: patent US20250325531A1, “TREATMENT OF SYSTOLIC DYSFUNCTION” (MyoKardia, Inc., priority 2024, published 2025)

Tested on: patients with stable HFrEF
Assay: Safety and tolerability (TEAEs, serum troponin, ECG, Holter) in MAD cohorts, patients with stable HFrEF
Assay type: in vivo, human
Protocol: During the study, multiple evaluations were performed that included: serial TTE assessments (11-14 TTEs per patient on Days 1, 2, 3, 4, 7, 9, 10 and 11); PK sampling (PK sample collected concomitantly with every post-randomization echocardiogram); ECGs (on Days 2, 3, 4, 7, 9, 10, 11 and 16); troponin (collected concomitantly with every post-randomization ECG); and safety laboratory assessments. Confined patients underwent continuous telemetry. Holter monitoring was performed in all patients at baseline (Days 1-2) and at the end of double-blind treatment (Days 7-9). Vital signs were collected daily.
Safety and efficacy assessments were conducted by measuring patients' vital signs and laboratory parameters; performing TTE to measure, e.g., systolic ejection time; performing electrocardiograms (e.g., 12-lead ECG), real-time ECG telemetry (e.g., at least 3-lead), and Holter ECG; and measuring levels of troponin (e.g., troponin I and/or troponin T) and 4β-hydroxycholesterol.
Abnormal and/or rising troponin values (as per investigator's judgment and taking into account potential baseline troponin elevation frequently observed in heart failure) led to the patient being clinically evaluated for possible myocardial ischemia. […] The entire clinical context (e.g., signs, symptoms, new ECG changes, new troponin, and CK-MB abnormalities) was evaluated and correlated with any other relevant clinical findings, patient's medical history, and laboratory data to determine the clinical significance of the findings. Troponin results performed on Day 2 of Part 1 (SAD) and Day 10 of Part 2 (MAD) at a local lab were reviewed prior to the patient being discharged the next day.

[1] = Cohort A + C 75 mg BID (n = 15)

Cn1cc(S(=O)(=O)[C@@](C)(F)C2CCN(C(=O)Nc3ccon3)CC2)c(C(F)F)n1 [Compound I, (R)-4-(1-((3-(difluoromethyl)-1-methyl-1H-pyrazol-4-yl)sulfonyl)-1-fluoroethyl)-N-(isoxazol-3-yl) piperidine-1-carboxamide]
Number of patients with any AE leading to death [1]: 0 | Number of patients with any TEAE [1]: 6 | Number of patients with any TEAE leading to permanent treatment discontinuation [1]: 0 | Number of patients with any serious TEAE [1]: 1 | TEAE Abdominal discomfort, n patients [1]: 0 | TEAE Alanine aminotransferase increased, n patients [1]: 1 | TEAE Anemia, n patients [1]: 1 | TEAE Application site erosion, n patients [1]: 0 | TEAE Arthralgia, n patients [1]: 0 | TEAE Arthropod bite, n patients [1]: 0 | TEAE Back pain, n patients [1]: 0 | TEAE Blood creatine phosphokinase increased, n patients [1]: 0 | TEAE Blood creatinine increased, n patients [1]: 0 | TEAE Cough, n patients [1]: 1 | TEAE Dermatitis contact, n patients [1]: 0 | TEAE Dry eye, n patients [1]: 0 | TEAE Fatigue, n patients [1]: 2 | TEAE Fluid overload, n patients [1]: 0 | TEAE Gingival pain, n patients [1]: 0 | TEAE Hyperkalemia, n patients [1]: 0 | TEAE Infusion site erythema, n patients [1]: 0 | TEAE Nasopharyngitis, n patients [1]: 0 | TEAE Rash, n patients [1]: 0 | TEAE Renal failure, n patients [1]: 0 | TEAE Renal impairment, n patients [1]: 0 | TEAE Testicular pain, n patients [1]: 0 | TEAE Troponin increased, n patients [1]: 1 | TEAE Ventricular tachycardia, n patients [1]: 0 | Number of patients with any AE leading to death (Cohort B 50 mg BID (n = 9)): 0 | Number of patients with any TEAE (Cohort B 50 mg BID (n = 9)): 7 | Number of patients with any TEAE leading to permanent treatment discontinuation (Cohort B 50 mg BID (n = 9)): 0 | Number of patients with any serious TEAE (Cohort B 50 mg BID (n = 9)): 0 | TEAE Abdominal discomfort, n patients (Cohort B 50 mg BID (n = 9)): 1 | TEAE Alanine aminotransferase increased, n patients (Cohort B 50 mg BID (n = 9)): 1 | TEAE Anemia, n patients (Cohort B 50 mg BID (n = 9)): 0 | TEAE Application site erosion, n patients (Cohort B 50 mg BID (n = 9)): 1 | TEAE Arthralgia, n patients (Cohort B 50 mg BID (n = 9)): 0 | TEAE Arthropod bite, n patients (Cohort B 50 mg BID (n = 9)): 0 | TEAE Back pain, n patients (Cohort B 50 mg BID (n = 9)): 0 | TEAE Blood creatine phosphokinase increased, n patients (Cohort B 50 mg BID (n = 9)): 1 | TEAE Blood creatinine increased, n patients (Cohort B 50 mg BID (n = 9)): 0 | TEAE Cough, n patients (Cohort B 50 mg BID (n = 9)): 0 | TEAE Dermatitis contact, n patients (Cohort B 50 mg BID (n = 9)): 2 | TEAE Dry eye, n patients (Cohort B 50 mg BID (n = 9)): 0 | TEAE Fatigue, n patients (Cohort B 50 mg BID (n = 9)): 0 | TEAE Fluid overload, n patients (Cohort B 50 mg BID (n = 9)): 1 | TEAE Gingival pain, n patients (Cohort B 50 mg BID (n = 9)): 0 | TEAE Hyperkalemia, n patients (Cohort B 50 mg BID (n = 9)): 1 | TEAE Infusion site erythema, n patients (Cohort B 50 mg BID (n = 9)): 1 | TEAE Nasopharyngitis, n patients (Cohort B 50 mg BID (n = 9)): 0 | TEAE Rash, n patients (Cohort B 50 mg BID (n = 9)): 1 | TEAE Renal failure, n patients (Cohort B 50 mg BID (n = 9)): 0 | TEAE Renal impairment, n patients (Cohort B 50 mg BID (n = 9)): 0 | TEAE Testicular pain, n patients (Cohort B 50 mg BID (n = 9)): 0 | TEAE Troponin increased, n patients (Cohort B 50 mg BID (n = 9)): 0 | TEAE Ventricular tachycardia, n patients (Cohort B 50 mg BID (n = 9)): 1 | Number of patients with any AE leading to death (Cohort D 100 mg BID (n = 6)): 0 | Number of patients with any TEAE (Cohort D 100 mg BID (n = 6)): 4 | Number of patients with any TEAE leading to permanent treatment discontinuation (Cohort D 100 mg BID (n = 6)): 0 | Number of patients with any serious TEAE (Cohort D 100 mg BID (n = 6)): 0 | TEAE Abdominal discomfort, n patients (Cohort D 100 mg BID (n = 6)): 0 | TEAE Alanine aminotransferase increased, n patients (Cohort D 100 mg BID (n = 6)): 0 | TEAE Anemia, n patients (Cohort D 100 mg BID (n = 6)): 0 | TEAE Application site erosion, n patients (Cohort D 100 mg BID (n = 6)): 0 | TEAE Arthralgia, n patients (Cohort D 100 mg BID (n = 6)): 0 | TEAE Arthropod bite, n patients (Cohort D 100 mg BID (n = 6)): 1 | TEAE Back pain, n patients (Cohort D 100 mg BID (n = 6)): 0 | TEAE Blood creatine phosphokinase increased, n patients (Cohort D 100 mg BID (n = 6)): 0 | TEAE Blood creatinine increased, n patients (Cohort D 100 mg BID (n = 6)): 1 | TEAE Cough, n patients (Cohort D 100 mg BID (n = 6)): 0 | TEAE Dermatitis contact, n patients (Cohort D 100 mg BID (n = 6)): 0 | TEAE Dry eye, n patients (Cohort D 100 mg BID (n = 6)): 0 | TEAE Fatigue, n patients (Cohort D 100 mg BID (n = 6)): 0 | TEAE Fluid overload, n patients (Cohort D 100 mg BID (n = 6)): 0 | TEAE Gingival pain, n patients (Cohort D 100 mg BID (n = 6)): 1 | TEAE Hyperkalemia, n patients (Cohort D 100 mg BID (n = 6)): 0 | TEAE Infusion site erythema, n patients (Cohort D 100 mg BID (n = 6)): 0 | TEAE Nasopharyngitis, n patients (Cohort D 100 mg BID (n = 6)): 0 | TEAE Rash, n patients (Cohort D 100 mg BID (n = 6)): 0 | TEAE Renal failure, n patients (Cohort D 100 mg BID (n = 6)): 0 | TEAE Renal impairment, n patients (Cohort D 100 mg BID (n = 6)): 0 | TEAE Testicular pain, n patients (Cohort D 100 mg BID (n = 6)): 0 | TEAE Troponin increased, n patients (Cohort D 100 mg BID (n = 6)): 1 | TEAE Ventricular tachycardia, n patients (Cohort D 100 mg BID (n = 6)): 1 | QTc (MAD cohorts): No increase in QTc | patients with TEAEs (MAD cohorts, Compound I patients): 17 (57%) n (%) | patients with transient and asymptomatic increase in troponin I or hs-troponin T (MAD cohorts, all doses): 7 (23%) n (%) | Number of patients with any AE leading to death (Total Compound I (n = 30)): 0 | Number of patients with any TEAE (Total Compound I (n = 30)): 17 | Number of patients with any TEAE leading to permanent treatment discontinuation (Total Compound I (n = 30)): 0 | Number of patients with any serious TEAE (Total Compound I (n = 30)): 1 | TEAE Abdominal discomfort, n patients (Total Compound I (n = 30)): 1 | TEAE Alanine aminotransferase increased, n patients (Total Compound I (n = 30)): 2 | TEAE Anemia, n patients (Total Compound I (n = 30)): 1 | TEAE Application site erosion, n patients (Total Compound I (n = 30)): 1 | TEAE Arthralgia, n patients (Total Compound I (n = 30)): 0 | TEAE Arthropod bite, n patients (Total Compound I (n = 30)): 1 | TEAE Back pain, n patients (Total Compound I (n = 30)): 0 | TEAE Blood creatine phosphokinase increased, n patients (Total Compound I (n = 30)): 1 | TEAE Blood creatinine increased, n patients (Total Compound I (n = 30)): 1 | TEAE Cough, n patients (Total Compound I (n = 30)): 1 | TEAE Dermatitis contact, n patients (Total Compound I (n = 30)): 2 | TEAE Dry eye, n patients (Total Compound I (n = 30)): 0 | TEAE Fatigue, n patients (Total Compound I (n = 30)): 2 | TEAE Fluid overload, n patients (Total Compound I (n = 30)): 1 | TEAE Gingival pain, n patients (Total Compound I (n = 30)): 1 | TEAE Hyperkalemia, n patients (Total Compound I (n = 30)): 1 | TEAE Infusion site erythema, n patients (Total Compound I (n = 30)): 1 | TEAE Nasopharyngitis, n patients (Total Compound I (n = 30)): 0 | TEAE Rash, n patients (Total Compound I (n = 30)): 1 | TEAE Renal failure, n patients (Total Compound I (n = 30)): 0 | TEAE Renal impairment, n patients (Total Compound I (n = 30)): 0 | TEAE Testicular pain, n patients (Total Compound I (n = 30)): 0 | TEAE Troponin increased, n patients (Total Compound I (n = 30)): 2 | TEAE Ventricular tachycardia, n patients (Total Compound I (n = 30)): 2 | ventricular arrhythmias (Holter monitoring) (compared with placebo): no increase in ventricular arrhythmias | systolic blood pressure (higher concentration group): decrease | serious AE, one patient (not considered related to study treatment): hyperkalemia
